Test results as given in PubChem BioAssay (NCI).
Several values for one entry are separate records, joined by “and”; a condition that tells them apart may be missing. Identical values can stand only once.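 Growth conditions: 96-well plates. Treatment: test compound, 48 hours, 5 concentrations. Analysis: linear interpolation between bracketing concentrations; unreached endpoints set to highest concentration. GI50: concentration for 50% inhibition of growth. Definition used: TGI = concentration required for complete inhibition of growth.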

Tests used:
Experiment in all cases: NCI-60 cell line screen, 48 h
HOP-62 NSCLC = tested on: HOP-62 NSCLC
HCC-2998 colon = tested on: HCC-2998 colon
SNB-75 CNS = tested on: SNB-75 CNS
SK-MEL-5 melanoma = tested on: SK-MEL-5 melanoma
TK-10 renal = tested on: TK-10 renal
UACC-257 melanoma = tested on: UACC-257 melanoma
NCI-H226 lung = tested on: NCI-H226 lung
NCI-H522 lung = tested on: NCI-H522 lung
HCT-116 colon = tested on: HCT-116 colon
CAKI-1 renal = tested on: CAKI-1 renal

| Structure (SMILES) | GI50 (HOP-62 NSCLC) | TGI (HOP-62 NSCLC) | GI50 (HCC-2998 colon) | TGI (HCC-2998 colon) | GI50 (SNB-75 CNS) | TGI (SNB-75 CNS) | GI50 (SK-MEL-5 melanoma) | TGI (SK-MEL-5 melanoma) | GI50 (TK-10 renal) | TGI (TK-10 renal) | GI50 (UACC-257 melanoma) | TGI (UACC-257 melanoma) | GI50 (NCI-H226 lung) | TGI (NCI-H226 lung) | GI50 (NCI-H522 lung) | TGI (NCI-H522 lung) | GI50 (HCT-116 colon) | TGI (HCT-116 colon) | GI50 (CAKI-1 renal) | TGI (CAKI-1 renal) |
| --- | --- | --- | --- | --- | --- | --- | --- | --- | --- | --- | --- | --- | --- | --- | --- | --- | --- | --- | --- | --- |
| Cc1cccc2c1NC(=O)[C@@H](NC(=O)[C@H](CCC(F)(F)F)[C@H](CCC(F)(F)F)C(N)=O)N=C2c1cccc(F)c1 | 25.8 µM | 92.1 µM | 60 µM | > 100 µM | 10.8 µM | 32.1 µM | > 100 µM | > 100 µM | 34.7 µM | > 100 µM | 48.6 µM | > 100 µM | 17 µM | 73.4 µM | 16.6 µM | 53.7 µM | 51.2 µM | > 100 µM | > 100 µM | > 100 µM |
| CN1CCN(C(=O)OCc2nc3c(N4CCOCC4)nc(-c4ccccc4)nc3n2C)CC1 | 1.53 µM | 3.79 µM | 1.58 µM | 3.21 µM | 1.04 µM | 2.27 µM | 1.5 µM | 2.85 µM | 1.67 µM | 3.12 µM | 1.47 µM | 3.17 µM | 1.61 µM | 3.78 µM | 0.596 µM | 2.4 µM | 0.207 µM | 0.648 µM | 0.471 µM | 1.83 µM |
| Nc1ncnc2occ(-c3ccc(NC(=O)Nc4cc(C(F)(F)F)ccc4F)cc3)c12 | 6.32 µM and 2.3 µM | 16.2 µM and 5.95 µM | 8.02 µM and 3.98 µM | 19 µM and 8.87 µM | 3.87 µM and 3.93 µM | 9.56 µM and 10.3 µM | 3.56 µM and 3.57 µM | 7.02 µM and 6.93 µM | 4.78 µM and 1.6 µM | 14.3 µM and 8.76 µM | 6.19 µM and 4.11 µM | 15.6 µM and 8.64 µM | 0.717 µM and 0.929 µM | 18.7 µM and 7.01 µM | 5.48 µM and 1.91 µM | 11.2 µM and 5.81 µM | 5.2 µM and 1.51 µM | 16.8 µM and 9.61 µM | 4.36 µM and 1.78 µM | 18.2 µM and 9 µM |
| COc1c(O)cc2c(c1CC=C(C)C)OC(=O)c1c(cc(O)c(CC=C(C)C)c1O)O2 | 4.19 µM | 7.72 µM | 2.56 µM | 5.72 µM | 3.09 µM | 6.45 µM | 4.24 µM | 7.91 µM | 5.49 µM | 11.7 µM | 4.06 µM | 7.67 µM | 4.51 µM | 8.86 µM | 4.16 µM | 8.06 µM | 3.91 µM | 7.82 µM | 4.32 µM | 8.61 µM |
| COC(=O)CCC(=O)C(CC(=O)OC)C(=O)CCC(=O)NCCc1ccccc1 (configuration not stated) |  | > 100 µM |  | > 100 µM |  | > 100 µM |  | > 100 µM |  | > 100 µM |  | > 100 µM |  | > 100 µM |  | > 100 µM |  | > 100 µM |  | > 100 µM |
| CN(CCNc1ccc(C(=N)N)cc1)c1ccc(C(=N)N)cc1 | 50 µM | > 100 µM | 97.3 µM | > 100 µM | 27.6 µM | > 100 µM | 13.2 µM | 28.3 µM | 53.4 µM | > 100 µM | 35.1 µM | > 100 µM | 3.81 µM | > 100 µM | 27.5 µM | > 100 µM | > 100 µM | > 100 µM | 2.7 µM | 37.3 µM |
| NNC(=S)N/N=C/c1ccccn1 | 1.44 µM | 35.3 µM | 3.12 µM | > 100 µM | 1.72 µM | 11.4 µM | 2.63 µM | 22.3 µM | 1.96 µM | > 100 µM | 2.7 µM | 26.6 µM | 2.41 µM | 13.8 µM | 0.258 µM | 0.859 µM | 1.66 µM | > 100 µM | 1.66 µM | > 100 µM |
| CCC(CO)COC(=O)/C=C/C(=O)OCC(CC)CO (configuration not stated) |  | > 100 µM |  | > 100 µM |  | > 100 µM |  | > 100 µM |  | > 100 µM |  | > 100 µM |  | > 100 µM |  | > 100 µM |  | > 100 µM |  | > 100 µM |
| Cc1cc2c(=O)cc(-c3ccc(O)cc3)oc2c(C(=O)O)c1C |  | > 100 µM |  | > 100 µM |  | > 100 µM |  | > 100 µM |  | > 100 µM |  | > 100 µM |  | > 100 µM |  | > 100 µM |  | > 100 µM |  | 69.2 µM |
| Cc1ccc(S(=O)OC2c3ccccc3Cc3ccccc32)cc1 (configuration not stated) |  | 34.3 µM |  | 33.8 µM |  | 34.6 µM |  | 37.1 µM |  | 64.3 µM |  | 34.9 µM |  | 37.1 µM |  | 27.1 µM |  | 35.8 µM |  | 56.3 µM |
| Oc1c(CCl)cc(Cl)cc1Cc1cc(Cl)cc(Cc2cc(Cl)cc(CCl)c2O)c1O | 4.42 µM | 26.5 µM | 2.8 µM | 12.2 µM | 3.95 µM | 80.2 µM | 1.91 µM | 4.19 µM | 3.9 µM | 24.1 µM | 4.66 µM | 29.9 µM | 4.11 µM | 21.1 µM | 2.73 µM | 10.2 µM | 2.92 µM | 10.4 µM | 3.37 µM | 17.7 µM |
| COc1ccc(/C=C/C(=O)c2ccc(B(O)O)cc2)cc1O | 18.5 µM | > 57.2 µM | 6.46 µM | 18.6 µM | 9.9 µM | 31.2 µM | 14.6 µM | 37.5 µM | 30.4 µM | > 67.6 µM | 21.6 µM | 59.3 µM | 28.2 µM | 97.1 µM | 17.8 µM | 45.1 µM | 2.64 µM | 10.1 µM | 17.7 µM | > 70.8 µM |
| Cc1ccc(C)c(N2C(=O)C(=O)C(c3nc4ccccc4s3)C(=O)C2=O)c1 |  | > 100 µM |  | > 100 µM |  | > 100 µM |  | > 100 µM |  | > 100 µM |  | > 100 µM |  | > 100 µM |  | > 100 µM |  | > 100 µM |  | > 100 µM |
| Cc1cc(C)c2c(=O)cc(-c3ccc(F)cc3)[nH]c2n1 |  | > 100 µM |  | > 100 µM |  | > 100 µM | 26.2 µM | 75.8 µM |  | > 100 µM |  | > 100 µM |  | > 100 µM |  | > 100 µM | 50 µM | > 100 µM |  | > 100 µM |
| COC(=O)c1oc([N+](=O)[O-])c(-c2ccccc2)c1-c1ccccc1 |  | > 100 µM |  | > 100 µM |  | > 100 µM |  | > 100 µM |  | > 100 µM |  | > 100 µM |  | > 100 µM |  | > 100 µM |  | > 100 µM |  | > 100 µM |
| CCOC(=O)Nc1ccc2c3c(cccc13)-c1ccccc1-2 | 5.27 µM | > 100 µM | 9.56 µM | > 100 µM | 8.97 µM | > 100 µM | 3.96 µM | > 100 µM | > 100 µM | > 100 µM | > 100 µM | > 100 µM | > 100 µM | > 100 µM | > 100 µM | > 100 µM | 4.22 µM | > 100 µM | 3.29 µM | > 100 µM |
| Cn1cnc([N+](=O)[O-])c1Sc1nccn1-c1ccccc1 |  | > 100 µM |  | > 100 µM |  | > 100 µM |  | > 100 µM |  | > 100 µM |  | > 100 µM |  | > 100 µM |  | 24.5 µM |  | > 100 µM |  | > 100 µM |
| CC(=O)N[C@@H](Cc1ccc(OP(=O)(O)O)cc1)C(=O)N[C@H]1CCC(=O)N2CCC[C@@H](C(=O)NCc3cccc4ccccc34)N2C1=O | > 25 µM | > 25 µM | > 25 µM | > 25 µM | > 25 µM | > 25 µM | > 25 µM | > 25 µM | > 25 µM | > 25 µM | > 25 µM | > 25 µM | > 25 µM | > 25 µM | > 25 µM | > 25 µM | > 25 µM | > 25 µM | > 25 µM | > 25 µM |
| CC1=CC=C2C(C)(C)CC[C@@H]3OC(=O)[C@H]1[C@]23C |  | > 100 µM |  | > 100 µM |  | > 100 µM |  | > 100 µM |  | > 100 µM |  | > 100 µM |  | > 100 µM |  | > 100 µM |  | > 100 µM |  | > 100 µM |
| O=C1C2=C(c3ccccc31)C(c1ccccc1Cl)NC(=S)N2 (configuration not stated) |  | > 100 µM |  | > 100 µM |  | > 100 µM |  | 46 µM |  | > 100 µM |  | > 100 µM |  | > 100 µM |  | > 100 µM |  | > 100 µM |  | > 100 µM |
| O=C(NCCCNc1cc(-c2cn(-c3ccccc3)nc2-c2cccc(O)c2)ccn1)c1ccc(F)cc1 | 2.64 µM | 10.8 µM | 1.83 µM | 3.4 µM | 5.19 µM | > 100 µM | 1.61 µM | 3.55 µM | 4.47 µM | 26.3 µM | 1.8 µM | 3.87 µM | 3.7 µM | 12.4 µM | 3.09 µM | 11.4 µM | 2.14 µM | 7.38 µM | 2.84 µM | 21.2 µM |
| CC(=O)OC1C(COC(N)=O)OC(n2c(-c3ccc(C)cc3)cc(-c3ccccc3)c(C#N)c2=O)C(OC(C)=O)C1OC(C)=O (configuration not stated) |  | > 100 µM |  | > 100 µM |  | > 100 µM |  | > 100 µM |  | > 100 µM |  | > 100 µM |  | > 100 µM |  | > 100 µM |  | > 100 µM |  | > 100 µM |
| CCCCN(CCCC)C(=O)C(=O)C(C(=O)C(=O)OC)c1nc2ccccc2o1 (configuration not stated) |  | > 100 µM |  | > 100 µM |  | > 100 µM |  | > 100 µM |  | > 100 µM |  | > 100 µM |  | > 100 µM |  | > 100 µM |  | > 100 µM |  | > 100 µM |
| O=C(/C=C/c1cccnc1)c1ccccc1 | 13.7 µM | 26.8 µM | 14.9 µM | 29.1 µM | 15.6 µM | 34.6 µM | 14.3 µM | 27.5 µM | 13.9 µM | 27.1 µM | 10.4 µM | 22.7 µM | 14.6 µM | 28.1 µM | 1.67 µM | 4.65 µM | 2.14 µM | 5.83 µM | 7.21 µM | 20.6 µM |
